What was measured:
Assay type in all cases: in vivo
[1] = tested on: Abutilon theophrasti; test: Herbicidal action post-emergence, greenhouse pot test
Procedure, shortened: (§1)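 Weeds were sown in sandy loam and grown in a greenhouse for 2 to 3 weeks, then sprayed at the one-leaf stage with WP or EC formulations plus 0.5% additive at 600 L/ha water, at 80 g/ha or lower. Efficacy was scored visually about 3 weeks later against untreated controls.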

[2] = tested on: Amaranthus retroflexus; test: as above
Procedure, shortened: as §1

[3] = tested on: Pharbitis purpurea; test: as above
Procedure, shortened: as §1

[4] = tested on: Polygonum convolvulus; test: as above
Procedure, shortened: as §1

[5] = tested on: Setaria viridis; test: as above
Procedure, shortened: as §1

[6] = tested on: Veronica persica; test: as above
Procedure, shortened: as §1

[7] = tested on: Viola tricolor; test: as above
Procedure, shortened: as §1

[8] = tested on: Glycine max; test: Crop compatibility post-emergence, greenhouse pot test
Procedure, shortened: (§2)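 Greenhouse post-emergence spray at one-leaf stage, 600 L/ha with 0.5% additive. Injury was assessed visually after about 3 weeks as % of untreated control.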

[9] = tested on: Oryza sativa; test: as above
Procedure, shortened: as §2

[10] = tested on: Triticum aestivum; test: as above
Procedure, shortened: as §2

[11] = tested on: Alopecurus myosuroides; test: Herbicidal action post-emergence, greenhouse pot test; settings: application rate 20 g/ha, scored visually after about 3 weeks vs untreated controls
Procedure, shortened: as §1

[12] = tested on: Echinochloa crus-galli; test: as above
Procedure, shortened: as §1

[13] = tested on: Matricaria inodora; test: as above
Procedure, shortened: as §1

[14] = tested on: Stellaria media; test: as above
Procedure, shortened: as §1

[15] = tested on: Zea mays; test: Crop compatibility post-emergence, greenhouse pot test
Procedure, shortened: as §2

[16] = tested on: Digitaria sanguinalis; test: Herbicidal action post-emergence, greenhouse pot test; settings: application rate 20 g/ha
[17] = tested on: Avena fatua; test: as above; settings: application rate 80 g/ha
Procedure, shortened: as §1

[18] = tested on: Hordeum murinum; test: as above; settings: application rate 80 g/ha
Procedure, shortened: as §1

[19] = tested on: Lolium rigidum; test: as above
Procedure, shortened: as §1

[20] = tested on: Abutilon theophrasti; test: Herbicidal action pre-emergence, greenhouse pot test; settings: application rate 80 g/ha
Procedure, shortened: (§3)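 Seeds were sown in pots and covered with soil, then compounds formulated as WP or EC were sprayed onto the soil surface as aqueous suspension or emulsion with 0.5% additive at 600 L/ha water, 320 g/ha or lower. After about 3 weeks in the greenhouse, efficacy was scored visually as % versus untreated controls.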

[21] = tested on: Alopecurus myosuroides; test: as above; settings: application rate 320 g/ha
Procedure, shortened: as §3

[22] = tested on: Amaranthus retroflexus; test: as above; settings: application rate 80 g/ha
Procedure, shortened: as §3

[23] = tested on: Avena fatua; test: as above; settings: application rate 320 g/ha
Procedure, shortened: as §3

[24] = tested on: Cyperus esculentus; test: as above; settings: application rate 80 g/ha
Procedure, shortened: as §3

[25] = tested on: Echinochloa crus-galli; test: as above; settings: application rate 320 g/ha
Procedure, shortened: as §3

[26] = tested on: Hordeum murinum; test: as above; settings: application rate 320 g/ha
Procedure, shortened: as §3

[27] = tested on: Lolium rigidum; test: as above; settings: application rate 320 g/ha
Procedure, shortened: as §3

[28] = tested on: Pharbitis purpurea; test: as above; settings: application rate 80 g/ha
Procedure, shortened: as §3

[29] = tested on: Polygonum convolvulus; test: as above; settings: application rate 80 g/ha
Procedure, shortened: as §3

[30] = tested on: Setaria viridis; test: as above; settings: application rate 80 g/ha
Procedure, shortened: as §3

[31] = tested on: Stellaria media; test: as above; settings: application rate 80 g/ha
Procedure, shortened: as §3

[32] = tested on: Veronica persica; test: as above; settings: application rate 80 g/ha
Procedure, shortened: as §3

[33] = tested on: Viola tricolor; test: as above; settings: application rate 80 g/ha
Procedure, shortened: as §3

[34] = tested on: Matricaria inodora; test: as above; settings: application rate 80 g/ha

## CCOC(=O)CCOC(=O)C(CC(C)C)Sc1cc(-n2c(=O)c(C)c(C(F)(F)F)n(C)c2=O)c(F)cc1Cl (centres unmarked) [I.14-3]
[1]; application rate 20 g/ha
  Abutilon theophrasti (Efficacy in %): 100%
[2]; application rate 20 g/ha
  Amaranthus retroflexus (Efficacy in %): 100%
[3]; application rate 20 g/ha
  Pharbitis purpurea (Efficacy in %): 100%
[4]; application rate 20 g/ha
  Polygonum convolvulus (Efficacy in %): 100%
[5]; application rate 20 g/ha
  Setaria viridis (Efficacy in %): 90%
[6]; application rate 20 g/ha
  Veronica persica (Efficacy in %): 100%
[7]; application rate 20 g/ha
  Viola tricolor (Efficacy in %): 100%
[8]; application rate 20 g/ha
  Glycine max (Efficacy in %): 20%
[9]; application rate 20 g/ha
  Oryza sativa (Efficacy in %): 0%
[10]; application rate 20 g/ha
  Triticum aestivum (Efficacy in %): 20%

## CCC(Sc1cc(-n2c(=O)cc(C(F)(F)F)n(C)c2=O)c(F)cc1Cl)C(=O)OCCC(=O)OCc1ccccc1 (centres unmarked) [I.2-6]
[1]; application rate 70 g/ha
  Abutilon theophrasti (Efficacy in %): 100%
[11]
  Alopecurus myosuroides (Efficacy in %): 80%
[2]; application rate 20 g/ha
  Amaranthus retroflexus (Efficacy in %): 100%
[12]; application rate 20 g/ha
  Echinochloa crus-galli (Efficacy in %): 100%
[13]; application rate 20 g/ha
  Matricaria inodora (Efficacy in %): 100%
[3]; application rate 20 g/ha
  Pharbitis purpurea (Efficacy in %): 100%
[4]; application rate 20 g/ha
  Polygonum convolvulus (Efficacy in %): 100%
[5]; application rate 20 g/ha
  Setaria viridis (Efficacy in %): 100%
[14]; application rate 20 g/ha
  Stellaria media (Efficacy in %): 100%
[6]; application rate 20 g/ha
  Veronica persica (Efficacy in %): 100%
[7]; application rate 20 g/ha
  Viola tricolor (Efficacy in %): 100%
[8]; application rate 5 g/ha
  Glycine max (Efficacy in %): 20%
[9]; application rate 20 g/ha
  Oryza sativa (Efficacy in %): 10%
[10]; application rate 20 g/ha
  Triticum aestivum (Efficacy in %): 20%
[15]; application rate 5 g/ha
  Zea mays (Efficacy in %): 0%
[16]
  Digitaria sanguinalis (Efficacy in %): 80%

## CON(C)C(=O)COC(=O)C(C)Sc1cc(-n2c(=O)cc(C(F)(F)F)n(C)c2=O)c(F)cc1Cl (centres unmarked) [I.1-242]
[1]; application rate 80 g/ha
  Abutilon theophrasti (Efficacy in %): 100%
[11]
  Alopecurus myosuroides (Efficacy in %): 90%
[2]; application rate 80 g/ha
  Amaranthus retroflexus (Efficacy in %): 100%
[17]
  Avena fatua (Efficacy in %): 80%
[12]; application rate 80 g/ha
  Echinochloa crus-galli (Efficacy in %): 100%
[18]
  Hordeum murinum (Efficacy in %): 90%
[19]; application rate 80 g/ha
  Lolium rigidum (Efficacy in %): 100%
[13]; application rate 80 g/ha
  Matricaria inodora (Efficacy in %): 100%
[3]; application rate 80 g/ha
  Pharbitis purpurea (Efficacy in %): 100%
[4]; application rate 80 g/ha
  Polygonum convolvulus (Efficacy in %): 100%
[5]; application rate 80 g/ha
  Setaria viridis (Efficacy in %): 100%
[14]; application rate 80 g/ha
  Stellaria media (Efficacy in %): 100%
[6]; application rate 80 g/ha
  Veronica persica (Efficacy in %): 100%
[7]; application rate 80 g/ha
  Viola tricolor (Efficacy in %): 100%
[9]; application rate 5 g/ha
  Oryza sativa (Efficacy in %): 20%
[10]; application rate 5 g/ha
  Triticum aestivum (Efficacy in %): 20%
[15]; application rate 80 g/ha
  Zea mays (Efficacy in %): 20%
[20]
  Abutilon theophrasti (Efficacy in %): 100%
[21]
  Alopecurus myosuroides (Efficacy in %): 90%
[22]
  Amaranthus retroflexus (Efficacy in %): 100%
[23]
  Avena fatua (Efficacy in %): 80%
[24]
  Cyperus esculentus (Efficacy in %): 80%
[25]
  Echinochloa crus-galli (Efficacy in %): 100%
[26]
  Hordeum murinum (Efficacy in %): 90%
[27]
  Lolium rigidum (Efficacy in %): 100%
[28]
  Pharbitis purpurea (Efficacy in %): 100%
[29]
  Polygonum convolvulus (Efficacy in %): 100%
[30]
  Setaria viridis (Efficacy in %): 100%
[31]
  Stellaria media (Efficacy in %): 100%
[32]
  Veronica persica (Efficacy in %): 100%
[33]
  Viola tricolor (Efficacy in %): 100%
[34]
  Matricaria inodora (Efficacy in %): 100%

## CCCCC(Sc1cc(-n2c(=O)cc(C(F)(F)F)n(C)c2=O)c(F)cc1Cl)C(=O)OCCC(=O)OCc1ccccc1 (centres unmarked) [I.47-6]
[1]; application rate 70 g/ha
  Abutilon theophrasti (Efficacy in %): 100%
[2]; application rate 20 g/ha
  Amaranthus retroflexus (Efficacy in %): 100%
[3]; application rate 20 g/ha
  Pharbitis purpurea (Efficacy in %): 100%
[4]; application rate 20 g/ha
  Polygonum convolvulus (Efficacy in %): 100%
[5]; application rate 20 g/ha
  Setaria viridis (Efficacy in %): 100%
[14]; application rate 20 g/ha
  Stellaria media (Efficacy in %): 80%
[6]; application rate 20 g/ha
  Veronica persica (Efficacy in %): 100%
[7]; application rate 20 g/ha
  Viola tricolor (Efficacy in %): 100%
[8]; application rate 5 g/ha
  Glycine max (Efficacy in %): 20%
[9]; application rate 20 g/ha
  Oryza sativa (Efficacy in %): 20%
[10]; application rate 5 g/ha
  Triticum aestivum (Efficacy in %): 20%
[15]; application rate 20 g/ha
  Zea mays (Efficacy in %): 20%
[16]
  Digitaria sanguinalis (Efficacy in %): 80%

## CCOC(=O)COC(=O)C(CC)Sc1cc(-n2c(=O)cc(C(F)(F)F)n(C)c2=O)c(F)cc1Cl (centres unmarked) [I.2-43, 2-Ethoxy-2-oxoethyl 2-({2-chloro-4-fluoro-5-[3-methyl-2,6-dioxo-4-(trifluoromethyl)-3,6-dihydropyrimidin-1(2H)-yl]phenyl}sulfanyl)butanoate]
[1]; application rate 20 g/ha
  Abutilon theophrasti (Efficacy in %): 100%
[2]; application rate 20 g/ha
  Amaranthus retroflexus (Efficacy in %): 100%
[12]; application rate 20 g/ha
  Echinochloa crus-galli (Efficacy in %): 100%
[13]; application rate 20 g/ha
  Matricaria inodora (Efficacy in %): 100%
[3]; application rate 20 g/ha
  Pharbitis purpurea (Efficacy in %): 100%
[4]; application rate 20 g/ha
  Polygonum convolvulus (Efficacy in %): 100%
[5]; application rate 20 g/ha
  Setaria viridis (Efficacy in %): 100%
[14]; application rate 20 g/ha
  Stellaria media (Efficacy in %): 100%
[6]; application rate 20 g/ha
  Veronica persica (Efficacy in %): 100%
[7]; application rate 20 g/ha
  Viola tricolor (Efficacy in %): 100%
[8]; application rate 5 g/ha
  Glycine max (Efficacy in %): 20%
[9]; application rate 20 g/ha
  Oryza sativa (Efficacy in %): 20%
[10]; application rate 20 g/ha
  Triticum aestivum (Efficacy in %): 10%
[15]; application rate 20 g/ha
  Zea mays (Efficacy in %): 20%

## CNC(=O)CCOC(=O)C(C)Sc1cc(-n2c(=O)cc(C(F)(F)F)n(C)c2=O)c(F)cc1Cl (centres unmarked) [I.1-152]
[1]; application rate 20 g/ha
  Abutilon theophrasti (Efficacy in %): 100%
[11]
  Alopecurus myosuroides (Efficacy in %): 80%
[2]; application rate 20 g/ha
  Amaranthus retroflexus (Efficacy in %): 100%
[12]; application rate 20 g/ha
  Echinochloa crus-galli (Efficacy in %): 100%
[19]; application rate 20 g/ha
  Lolium rigidum (Efficacy in %): 80%
[13]; application rate 20 g/ha
  Matricaria inodora (Efficacy in %): 100%
[3]; application rate 20 g/ha
  Pharbitis purpurea (Efficacy in %): 100%
[4]; application rate 20 g/ha
  Polygonum convolvulus (Efficacy in %): 100%
[5]; application rate 20 g/ha
  Setaria viridis (Efficacy in %): 100%
[14]; application rate 20 g/ha
  Stellaria media (Efficacy in %): 100%
[6]; application rate 20 g/ha
  Veronica persica (Efficacy in %): 100%
[7]; application rate 20 g/ha
  Viola tricolor (Efficacy in %): 100%
[8]; application rate 5 g/ha
  Glycine max (Efficacy in %): 20%
[9]; application rate 5 g/ha
  Oryza sativa (Efficacy in %): 10%
[10]; application rate 5 g/ha
  Triticum aestivum (Efficacy in %): 20%
[16]
  Digitaria sanguinalis (Efficacy in %): 100%

From US11274083B2, “Substituted thiophenyl uracils, salts thereof and the use thereof as herbicidal agents” (Syngenta Crop Protection AG, priority 2017, dated 2022)
